Measured values from ChEMBL document CHEMBL1201862, “PubChem BioAssay data set” (2004).
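A five-concentration, 48-hour dose response in 96-well plates underlies each endpoint, interpolated linearly between surrounding concentrations. Here, GI50 denotes the concentration required for 50% inhibition of growth.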 The source made the active and inactive calls. No stated cut-off is given here; in the data, active = GI50 up to about 1.1 µM and inactive = higher.

Columns and labels:
Experiment in all cases: growth of human tumour cells (NCI), 48 h
786-0 = test system: 786-0
A549 = test system: A549
ACHN = test system: ACHN
BT-549 = test system: BT-549
CAKI-1 = test system: CAKI-1
CCRF-CEM = test system: CCRF-CEM
COLO 205 = test system: COLO 205
DU-145 = test system: DU-145
EKVX = test system: EKVX
HCC 2998 = test system: HCC 2998
HCT-116 = test system: HCT-116
HCT-15 = test system: HCT-15
HL-60 = test system: HL-60
HOP-62 = test system: HOP-62
HOP-92 = test system: HOP-92
HT-29 = test system: HT-29
Hs-578T = test system: Hs-578T
IGROV-1 = test system: IGROV-1
K562 = test system: K562
KM12 = test system: KM12
LOX IMVI = test system: LOX IMVI
M14 = test system: M14
MCF7 = test system: MCF7
MDA-MB-231 = test system: MDA-MB-231
MDA-MB-435 = test system: MDA-MB-435
MDA-N = test system: MDA-N
MOLT-4 = test system: MOLT-4
Malme-3M = test system: Malme-3M
NCI-H226 = test system: NCI-H226
NCI-H23 = test system: NCI-H23
NCI-H460 = test system: NCI-H460
NCI-H522 = test system: NCI-H522
NCI/ADR-RES = test system: NCI/ADR-RES
OVCAR-3 = test system: OVCAR-3
OVCAR-4 = test system: OVCAR-4
OVCAR-5 = test system: OVCAR-5
OVCAR-8 = test system: OVCAR-8
PC-3 = test system: PC-3
RPMI-8226 = test system: RPMI-8226
RXF 393 = test system: RXF 393
SF-268 = test system: SF-268
SF-295 = test system: SF-295
SF-539 = test system: SF-539
SK-MEL-28 = test system: SK-MEL-28
SK-MEL-2 = test system: SK-MEL-2
SK-MEL-5 = test system: SK-MEL-5
SK-OV-3 = test system: SK-OV-3
SN12C = test system: SN12C
SNB-19 = test system: SNB-19
SNB-75 = test system: SNB-75
SR = test system: SR
SW-620 = test system: SW-620
T47D = test system: T47D
TK-10 = test system: TK-10
U-251 = test system: U-251
UACC-257 = test system: UACC-257
UACC-62 = test system: UACC-62
UO-31 = test system: UO-31

In the case of `Cc1cnc2[nH]c(-c3ccccc3)cc(=O)c2c1`, the GI50 (786-0) is reported as 43 nM (active), the GI50 (A549) is reported as 58.5 nM (active) and the GI50 (ACHN) is reported as 60.8 nM (active). For the same compound, the GI50 (BT-549) was 30.6 nM (active), the GI50 (CAKI-1) was < 18.6 nM (active) and the GI50 (CCRF-CEM) was 15.9 nM (active). For the same compound, the GI50 (COLO 205) was 19.3 nM (active), the GI50 (DU-145) was 39.5 nM (active) and the GI50 (EKVX) was 716 nM (active). The GI50 (HCC 2998) was 37.2 nM (active), the GI50 (HCT-116) was < 15.5 nM (active) and the GI50 (HCT-15) was 21.2 nM. For the same compound, the GI50 (HL-60) was < 10 nM (active), the GI50 (HOP-62) was 1210 nM (inactive) and the GI50 (HOP-92) was 65 nM (active). For the same compound, the GI50 (HT-29) was 10.1 nM (active), the GI50 (Hs-578T) was 17.1 nM (active) and the GI50 (IGROV-1) was 81.7 nM (active). The GI50 (K562) was < 10 nM (active), the GI50 (KM12) was 13.8 nM (active) and the GI50 (LOX IMVI) was 35.1 nM (active). For the same compound, the GI50 (M14) was 21.3 nM (active), the GI50 (MCF7) was 164 nM (active) and the GI50 (MDA-MB-231) was 217 nM (active). For the same compound, the GI50 (MDA-MB-435) was < 10 nM (active), the GI50 (MDA-N) was < 10 nM (active) and the GI50 (MOLT-4) was 25.2 nM (active). For the same compound, the GI50 (Malme-3M) was 17 nM (active), the GI50 (NCI-H226) was 122 nM (active) and the GI50 (NCI-H23) was 74.1 nM (active). For the same compound, the GI50 (NCI-H460) was 25.9 nM (active), the GI50 (NCI-H522) was < 11.8 nM (active) and the GI50 (NCI/ADR-RES) was 12 nM (active). The GI50 (OVCAR-3) was 12.3 nM (active), the GI50 (OVCAR-4) was 1350 nM (inactive) and the GI50 (OVCAR-5) was 3070 nM (inactive). The GI50 (OVCAR-8) was 40 nM (active), the GI50 (PC-3) was 16.1 nM (active) and the GI50 (RPMI-8226) was 21.9 nM (active). The GI50 (RXF 393) was 15.4 nM (active), the GI50 (SF-268) was 69.7 nM (active) and the GI50 (SF-295) was 54.5 nM (active). The GI50 (SF-539) was 24.6 nM (active), the GI50 (SK-MEL-28) was 36.3 nM (active) and the GI50 (SK-MEL-2) was 39.1 nM (active). For the same compound, the GI50 (SK-MEL-5) was < 10 nM (active), the GI50 (SK-OV-3) was 28.4 nM (active) and the GI50 (SN12C) was 52.7 nM (active). The GI50 (SNB-19) was 90.4 nM (active), the GI50 (SNB-75) was 12.2 nM (active) and the GI50 (SR) was < 10 nM (active). The GI50 (SW-620) was < 10 nM (active), the GI50 (T47D) was > 100000 nM (inactive) and the GI50 (TK-10) was 151 nM (active). For the same compound, the GI50 (U-251) was 18.8 nM (active), the GI50 (UACC-257) was < 21.8 nM (active) and the GI50 (UACC-62) was < 13.2 nM (active). For the same compound, the GI50 (UO-31) was 52.8 nM (active).
